Patent EP0179386A2, “1,4-Dihydropyridine hydroxyamines, process for their preparation and their use as pharmaceutical agents” (BAYER AG, priority 1984, dated 1986)

Legend:
[1] = tested on: Isoprenalin stimulierten Ratten; assay: Lowering of heart rate in rats stimulated with subcutaneous isoprenaline; type: in vivo; details: anaesthetised rats, 1 mg/kg i.v., heart rate stimulated by subcutaneous isoprenaline
Description: In einem zweiten Test wird die Herzfrequenz von Ratten durch subkutane Applikation von Isoprenalin stimuliert. Dann werden die erfindungsgemäßen Verbindungen appliziert (1 mg/kg i.v.) und 'der Effekt auf die Erniedrigung der Herzfrequenz gemessen.

normotonen Ratten = assay: Blood pressure before and after i.v. application in anaesthetised normotensive rats; type: in vivo; details: Rattus norvegicus, iv, 1 mg/kg i.v., read-out: BD: Blutdrucksenkung in % bei normotonen Ratten
Description: Die erfindungsgemäßen neuen Verbindungen werden Ratten mit einer Dosis von 1 mg/kg intravenös appliziert und der Blutdruck vor und nach der Applikation bestimmt.

SMILES: CC1=C(C(=O)OCCNCC(O)COc2cccc3ccccc23)C(c2cccc([N+](=O)[O-])c2)C(C(=O)OC(C)C)=C(C)N1 (centres unmarked) [Beispiel 1]
- HR: Erniedrigung der Herzfrequenz in absoluten Zahlen bei Isoprenalin stimulierten Ratten (subkutane Applikation) [1]: ↓↓ (40 < 65)
- inhibition in vivo at 1 mg/kg (normotonen Ratten): 20 to 30%

SMILES: COC(=O)C1=C(C)NC(C)=C(C(=O)OCCCCCNCC(O)COc2cccc3ccccc23)C1c1cccc([N+](=O)[O-])c1 (centres unmarked) [Beispiel 16]
- HR: Erniedrigung der Herzfrequenz in absoluten Zahlen bei Isoprenalin stimulierten Ratten (subkutane Applikation) [1]: ↓ (15 - < 40)
- inhibition in vivo at 1 mg/kg (normotonen Ratten): 10 to 20%

SMILES: COC(=O)C1=C(C)NC(C)=C(C(=O)OCCOCCNCC(O)COc2cccc3ccccc23)C1c1cccc([N+](=O)[O-])c1 (centres unmarked) [Beispiel 20]
- HR: Erniedrigung der Herzfrequenz in absoluten Zahlen bei Isoprenalin stimulierten Ratten (subkutane Applikation) [1]: ↓↓ (40 < 65)
- inhibition in vivo at 1 mg/kg (normotonen Ratten): 10 to 20%

SMILES: COC(=O)C1=C(C)NC(C)=C(C(=O)OCCNCC(O)COc2ccc(CC(N)=O)cc2)C1c1cccc([N+](=O)[O-])c1 (centres unmarked) [Beispiel 25]
- HR: Erniedrigung der Herzfrequenz in absoluten Zahlen bei Isoprenalin stimulierten Ratten (subkutane Applikation) [1]: ↓ (15 - < 40)
- inhibition in vivo at 1 mg/kg (normotonen Ratten): 5 to 10%

SMILES: CC1=C(C(=O)OCCCNCC(O)COc2cccc3[nH]ccc23)C(c2cccc([N+](=O)[O-])c2)C(C(=O)OC(C)C)=C(C)N1 (centres unmarked) [Beispiel 26]
- HR: Erniedrigung der Herzfrequenz in absoluten Zahlen bei Isoprenalin stimulierten Ratten (subkutane Applikation) [1]: ↓↓↓ (65 < 100)
- inhibition in vivo at 1 mg/kg (normotonen Ratten): 10 to 20%

SMILES: CC1=C(C(=O)OCCOCCNCC(O)COc2cccc3ccccc23)C(c2cccc([N+](=O)[O-])c2)C(C(=O)OC(C)C)=C(C)N1 (centres unmarked) [Beispiel 30]
- HR: Erniedrigung der Herzfrequenz in absoluten Zahlen bei Isoprenalin stimulierten Ratten (subkutane Applikation) [1]: (↓) (10)
- inhibition in vivo at 1 mg/kg (normotonen Ratten): 30 to 40%

SMILES: CC1=C(C(=O)OCCSCCNCC(O)COc2cccc3ccccc23)C(c2cccc([N+](=O)[O-])c2)C(C(=O)OC(C)C)=C(C)N1 (centres unmarked) [Beispiel 31]
- HR: Erniedrigung der Herzfrequenz in absoluten Zahlen bei Isoprenalin stimulierten Ratten (subkutane Applikation) [1]: ↓↓ (40 < 65)
- inhibition in vivo at 1 mg/kg (normotonen Ratten): 20 to 30%

SMILES: COC(=O)C1=C(C)NC(C)=C(C(=O)OCCN(C)CCCNCC(O)COc2cccc3ccccc23)C1c1cccc([N+](=O)[O-])c1 (centres unmarked) [Beispiel 32]
- HR: Erniedrigung der Herzfrequenz in absoluten Zahlen bei Isoprenalin stimulierten Ratten (subkutane Applikation) [1]: ↓ (15 - < 40)
- inhibition in vivo at 1 mg/kg (normotonen Ratten): 10 to 20%

SMILES: COC(=O)C1=C(C)NC(C)=C(C(=O)OCCNCC(O)COc2cccc3ccccc23)C1c1cccc(Cl)c1 (centres unmarked) [Beispiel 68]
- HR: Erniedrigung der Herzfrequenz in absoluten Zahlen bei Isoprenalin stimulierten Ratten (subkutane Applikation) [1]: ↓ (15 - < 40)
- inhibition in vivo at 1 mg/kg (normotonen Ratten): 20 to 30%

SMILES: COC(=O)C1=C(C)NC(C)=C(C(=O)OCCNCC(O)COc2cccc3ccccc23)C1c1ccccc1[N+](=O)[O-] (centres unmarked) [Beispiel 69]
- HR: Erniedrigung der Herzfrequenz in absoluten Zahlen bei Isoprenalin stimulierten Ratten (subkutane Applikation) [1]: ↓ (15 - < 40)
- inhibition in vivo at 1 mg/kg (normotonen Ratten): 10 to 20%
